Tests used:
[1] = test system: Echinochloa crus-galli; experiment: External application of the compound to Echinochloa crus-galli seeds on agar medium, radicle and embryo length; format: in vivo; conditions: 500 mg/L in 0.8% agar, 28° C., 3 days in the dark, 3 biological repeats
Method: I. Procedures for External Application of the Compound to Lettuce and Echinochloa crus-galli Compounds to be tested: isoorientin and isoorientin-2″-O-glucopyranoside. (1) The compounds to be tested were dried into powder with a centrifugal concentrator and weighed, a proper amount of sterile water was added to make its final concentration to be 10 mg/mL. (2) 500 mL of 0.8% agar was prepared and sterilized in an autoclave. […] solution of the compounds to be tested at a concentration of 10 mg/mL were added to make the final concentration of the compounds to be 500 mg/L. The medium containing the compound to be tested was quickly poured into a 10 cm×10 cm square dish, and the square dish was shaken quickly so that the medium was evenly spread in the square dish. The medium added with equal amount of sterile water was used as control. (4) The seeds of Echinochloa crus-galli were washed with distilled water for several times, and then placed on sterile filter paper to dry. (5) After the medium had solidified, the seeds of Echinochloa crus-galli were placed with sterile tweezers on the medium, and 26 seeds were placed in each petri dish (2 rows, with 13 seeds in each row). Each treatment had 3 biological repeats. (6) The petri dishes were placed in an incubator at 28° C. for 3 days in the dark. (7) Phenotypic statistics: after 3 days, the length of radicle and embryo of each treated material were counted.

[2] = test system: Os02g0589400 recombinant protein; experiment: In vitro enzymatic activity of Os02g0589400 (glycosylation of isoorientin with UDPG, UPLC-QTOF/MS); format: biochemical, Oryza sativa L. ssp. japonica cv. Zhonghua 11 (ZH11); conditions: glycosyl donor UDPG, Tris-HCl pH 7.0, 30° C., 1 hour
Method: The enzymatic activity reaction system was: 38 μL of Tris-HCl (pH 7.0, 50 mM, containing 10 mM DTT), 1 μL of 10 mM glycosyl receptor (the glycosyl receptor of Os02g0589400 is isoorientin), 1 μL of 100 mM glycosyl donor (UDPG), and 10 μL of 2.03 μg/μL of recombinant protein of Os02g0589400 obtained in (2). React in water bath at 30° C. for 1 hour, and then stop the reaction with equal volume of methanol. A sample containing protein obtained from E. coli into which a pMAL-c2X mock vector was transferred according to the above step (2) was taken as the negative control. Centrifuge at 12,000 rpm, 4° C. for 10 min, 30 μL of the resulting supernatant was taken and measured by UPLC-QTOF/MS, and the measuring method was the same as that shown in Example 1.

| SMILES | embryo length of Echinochloa crus-galli compared with the control [1] | radicle length of Echinochloa crus-galli compared with the control [1] | glycosylation of the glycosyl receptor by Os02g0589400 recombinant protein compared with the mock control [2] |
| --- | --- | --- | --- |
| O=c1cc(-c2ccc(O)c(O)c2)oc2cc(O)c([C@@H]3O[C@H](CO)[C@@H](O)[C@H](O)[C@H]3O[C@@H]3O[C@H](CO)[C@@H](O)[C@H](O)[C@H]3O)c(O)c12 [isoorientin-2″-O-glucopyranoside] | no significant difference | no significant difference | – |
| O=c1cc(-c2ccc(O)c(O)c2)oc2cc(O)c([C@@H]3O[C@H](CO)[C@@H](O)[C@H](O)[C@H]3O)c(O)c12 [isoorientin] | no significant difference | significantly shortened | could catalyze isoorientin to produce isoorientin-2″-O-glucopyranoside |
